Test results reported in patent US5763443A, “MDR resistance treatment and novel pharmaceutically active riminophenazines” (priority 1994, dated 1998).
Values after ≈ are worked out from the molar mass of the structure shown. Where two headings read alike, the source gives them in different places.

Key:
[1] = test system: multi-drug resistant (MDR) lung carcinoma cell line H69/LX4; experiment: cells; details: for IC50: Homo sapiens; for INCREASED SENSITIVITY H69/Lx4: Table VIII, values equal IC50 NONE / IC50 with VB 25 ng/ml of Table VII, 10080 min
Method: The riminophenazines of the above formula (I), contain an imino group. […] The potency of compounds of the above general formula, as inhibitors of multi-drug resistance, was assessed by sensitization of a P-glycoprotein positive cell line to drugs associated with this form of resistance. A human small cell lung cancer cell line H 69/P as well as a multi-drug resistance (MDR) sub-line H69/LX4 were used. These cell lines were obtained from the Medical Research Council Clinical Oncology and Radiotherapeutics Unit, Hills Road, Cambridge, England. The H69/LX4 line was selected in vitro by progressive exposure to increasing concentrations of doxorubicin in order to increase P-glycoprotein expression.
The cell lines used were human small cell lung cancer cell line HP69/P and a multi-drug resistant (MDR) sub-line H69/LX4, both of which were supplied by the MRC Clinical Oncology and Radiotherapeutics Unit, Hills Road, Cambridge, England. The maintenance of the cell lines and drug response assays was done as described by Twentyman et al in British Journal of Cancer Volume 65 pages 335-340. The H69/LX4 line was originally described by Twentyman et al in British Journal of Cancer Volume 53, pages 529-637 (1986).
The data in parenthesis represents fold sensitivity compared with the chemotherapeutic agent without the MDR inhibitor.
The results obtained, are illustrated graphically in FIGS. 4 to 7 of the accompanying drawings.
(§1) The general procedure set forth above was followed, i.e. 7 days incubation in the4 presence of doxorubicin at 12,5 ng/ml or vinblastine at 25 or 3 ng/ml.
(§2) The effects were examined over a seven (7) day exposure to different concentrations of B4119 and B4125 on the sensitivity of a doxorubicin resistant leukaemia cell line (K562/MMB) and a lung carcinoma cell line (H69/LX4) to doxorubicin (dox) and vinblastine (VB) using the MTT assay.

[2] = test system: MDR leukaemia cell line K562/MMB; experiment: cells; details: for INCREASED SENSITIVITY K 562/MMB: Table VIII, values equal IC50 NONE / IC50 with VB 3 ng/ml of Table VII, 10080 min; for IC50: Homo sapiens; for MDR activity / sensitivity against cell line K562/MMP: compared with known reference compound B4100
Method: A third cell line (562/MMB) used was a MDR leukemia cell line selected in vitro by progressive exposure to increasing concentrations of vinblastine in order to increase P-glycoprotein expression. This cell line was developed in the Department of Immunology, University of Pretoria from K562 (ATCC CCL 243) supplied by Highveld Biological (Pty) Ltd, Sandton.
as §1, §2

[3] = 168 h, read-out: IC 50 H69/Lx4 NONE
[4] = read-out: IC 50 H69/Lx4 DOX 12 ng/ml
[5] = read-out: IC 50 H69/Lx4 VB 25 ng/ml
[6] = K562, 168 h, read-out: IC 50 K562/MMB NONE, Table VII, riminophenazine alone, 7 day
[7] = K562, read-out: IC 50 K562/MMB DOX 12 ng/ml, Table VII, with doxorubicin 12 ng/ml
[8] = K562, read-out: IC 50 K562/MMB VB 3 ng/ml, Table VII, with vinblastine 3 ng/ml

SMILES	IC50 [1, 3] [µg/mL]	IC50 [1, 4] [µg/mL]	IC50 [1, 5] [µg/mL]	INCREASED SENSITIVITY H69/Lx4 [1]	INCREASED SENSITIVITY K 562/MMB [2]	IC50 [2, 8] [µg/mL]	MDR activity / sensitivity against cell line K562/MMP [2]	other results
CC1(C)CC(N=c2cc3n(-c4ccc(Cl)cc4)c4ccccc4nc-3cc2Nc2ccc(Cl)cc2)CC(C)(C)N1 [Compound B3786]	0.608 (≈ 1.07 µM)	0.597 (≈ 1.05 µM)	0.169 (≈ 0.296 µM)	3.60				
CC1(C)CC(N=c2cc3n(-c4ccccc4)c4ccccc4nc-3cc2Nc2ccccc2)CC(C)(C)N1 [Compound B3962, N,5-bis(phenyl)-3,5-dihydro-3-[(2',2',6',6'-tetramethyl-4-piperidyl)imino]-2-phenazinamine]	0.563 (≈ 1.12 µM)	0.427 (≈ 0.851 µM)	0.262 (≈ 0.522 µM)	2.15	4.07			
CC1(C)CC(N=c2cc3n(-c4ccccc4)c4ccc(Cl)cc4nc-3cc2Nc2ccccc2)CC(C)(C)N1 [Compound B4019]	1.03 (≈ 1.92 µM)	0.771 (≈ 1.44 µM)	0.488 (≈ 0.91 µM)	2.11				
Cc1ccc(Nc2cc3nc4ccccc4n(-c4ccc(C)cc4)c-3cc2=NC2CC(C)(C)NC(C)(C)C2)cc1 [Compound B4070, N,5-bis(4-methylphenyl)-3,5-dihydro-3-[(2',2',6',6'-tetramethyl-4-piperidyl)imino]-2-phenazinamine]	0.525 (≈ 0.991 µM)	0.312 (≈ 0.589 µM)	0.2 (≈ 0.378 µM)	2.63	2.94	0.054 (≈ 0.102 µM)		IC50 [2, 6]: 0.159 µg/mL (≈ 0.3 µM); IC50 ([2]; K562, 168 h, read-out: IC 50 of riminophenazine, Doxorubicin, Table IV, K562/MMB, with doxorubicin 12 ng/ml, 7 day): 0.193 µg/mL (≈ 0.364 µM); IC50 ([2]; K562, 168 h, read-out: IC 50 of riminophenazine, None, Table IV, K562/MMB, riminophenazine alone, 7 day, mean of 2 experiments): 0.159 µg/mL (≈ 0.3 µM); IC50 ([2]; K562, 168 h, read-out: IC 50 of riminophenazine, Vinblastine, Table IV, K562/MMB, with vinblastine 3 ng/ml, 7 day): 0.054 µg/mL (≈ 0.102 µM); IC50 [2, 7]: 0.193 µg/mL (≈ 0.364 µM)
CC1(C)CC(N=c2cc3n(-c4ccc(Cl)cc4)c4ccc(Cl)cc4nc-3cc2Nc2ccc(Cl)cc2)CC(C)(C)N1 [Compound B4090]	1.5 (≈ 2.48 µM)	1.01 (≈ 1.66 µM)	0.266 (≈ 0.44 µM)	5.64	7.30	0.027 (≈ 0.0446 µM)	exceptionally good activity	
CC1(C)CC(N=c2cc3n(-c4ccc(Cl)c(Cl)c4)c4ccccc4nc-3cc2Nc2ccc(Cl)c(Cl)c2)CC(C)(C)N1 [Compound B4100, reference compound]	0.798 (≈ 1.25 µM)	0.582 (≈ 0.91 µM)	0.125 (≈ 0.195 µM)	6.38	3.53			
CC1(C)CC(N=c2cc3n(-c4cccc(Cl)c4)c4ccccc4nc-3cc2Nc2cccc(Cl)c2)CC(C)(C)N1 [Compound B4112, N,5-bis(3-chlorophenyl)-3,5-dihydro-3-[(2',2',6',6'-tetramethyl-4-piperidyl)-imino]-2-phenazinamine]	0.62 (≈ 1.09 µM)	0.175 (≈ 0.307 µM)	0.029 (≈ 0.0508 µM)	21.38	19.5	0.008 (≈ 0.014 µM)	exceptionally good activity	direct cytotoxic activity [2]: direct cytotoxic activity in this cell line at reasonably low concentrations; IC50 [2, 6]: 0.156 µg/mL (≈ 0.273 µM); IC50 ([2]; K562, read-out: IC50, alone, Table V, K562/MMB (first value column, head not given)): 0.156 µg/mL (≈ 0.273 µM); IC50 ([2]; K562, read-out: IC50, plus VB, Table V, K562/MMB, vinblastine 3 ng/ml): 0.008 µg/mL; IC50 ([2]; K562, read-out: IC50, plus doxo, Table V, K562/MMB, doxorubicin 12 ng/ml): 0.066 µg/mL; IC50 [2, 7]: 0.066 µg/mL (≈ 0.116 µM); lowest concentration at which compound was active ([2]; K562/MMB, Example 6): 3 ng/mL; MDR activity against the cell line H69/LX4 [1]: very good activity; IC50 ([1]; read-out: IC50, plus VB): 0.029 µg/mL; IC50 ([1]; read-out: IC50, plus doxo): 0.62 µg/mL
CC1(C)CC(N=c2cc3n(-c4cccc(Cl)c4)c4ccc(Cl)cc4nc-3cc2Nc2cccc(Cl)c2)CC(C)(C)N1 [Compound B4123, N,5-bis(3-chlorophenyl)-8-chloro-3,5-dihydro-3[(2',2',6',6'-tetramethyl-4-piperidyl)-imino]-2-phenazinamine]	1.18 (≈ 1.94 µM)	1.02 (≈ 1.69 µM)	0.251 (≈ 0.415 µM)	4.69	6.80	0.049 (≈ 0.081 µM)	exceptionally good activity	
CC1(C)CC(N=c2cc3n(-c4cccc(C(F)(F)F)c4)c4ccc(Cl)cc4nc-3cc2Nc2cccc(C(F)(F)F)c2)CC(C)(C)N1 [Compound B4127, N,5-bis(3-trifluoromethylphenyl)-8-chloro-3,5-dihydro-3-[(2',2',6',6'-tetramethyl-4-piperidyl)-imino]-2-phenazinamine]	1.32 (≈ 1.97 µM)	1.31 (≈ 1.95 µM)	0.454 (≈ 0.675 µM)	2.91	6.07			
CC1(C)CC(N=c2cc3n(-c4ccc(Cl)cc4Cl)c4ccccc4nc-3cc2Nc2ccc(Cl)cc2Cl)CC(C)(C)N1 [Compound B4128, N,5-bis(2,4-dichiorophenyl)-3,5-dihydro-3-[(2',2',6',6'-tetramethyl-4-piperidyl)-imino]-2-phenazinamine]	1.23 (≈ 1.92 µM)	0.782 (≈ 1.22 µM)	0.434 (≈ 0.679 µM)	2.82	6.49		increased substantially and unexpectedly	
CCN(CC)CCCN=c1cc2n(-c3ccc(Cl)c(Cl)c3)c3ccccc3nc-2cc1Nc1ccc(Cl)c(Cl)c1 [Compound B4154]	1.33 (≈ 2.17 µM)	0.648 (≈ 1.06 µM)	0.378 (≈ 0.616 µM)	3.52	2.99			
CC(C)c1ccc(Nc2cc3nc4cc(Cl)ccc4n(-c4ccc(C(C)C)cc4)c-3cc2=NC2CC(C)(C)NC(C)(C)C2)cc1 [Compound B4159, N,5-bis(4-isopropylphenyl)-8-chloro-3,5-dihydro-3-[(2',2',6',6'-tetramethyl-4-piperidyl)-imino]-2-phenazinamine]	1.55 (≈ 2.5 µM)	1.09 (≈ 1.76 µM)	0.268 (≈ 0.432 µM)	5.79	7.02		exceptionally good activity	
CC1(C)CC(N=c2cc3n(-c4ccc(Cl)c(C(F)(F)F)c4)c4ccccc4nc-3cc2Nc2ccc(Cl)c(C(F)(F)F)c2)CC(C)(C)N1 [Compound B4163, N,5-bis[(3-trifluoromethyl)-4-chlorophenyl]-3,5-dihydro-3-[(2',2',6',6'-tetramethylpiperidyl)-imino]-2-phenazinamine]	0.972 (≈ 1.38 µM)	0.846 (≈ 1.2 µM)	0.281 (≈ 0.398 µM)	3.46	10.63	0.032 (≈ 0.0453 µM)	increased substantially and unexpectedly	
COc1ccc(Nc2cc3nc4ccccc4n(-c4ccc(OC)cc4)c-3cc2=NC2CC(C)(C)NC(C)(C)C2)cc1 [Compound B4174, N,5-bis(4-methoxyphenyl)-3,5-dihydro-3-[(2',2',6',6'-tetramethyl-4-piperidyl)-imino]-2-phenazinamine]	0.462 (≈ 0.822 µM)	0.587 (≈ 1.04 µM)	0.535 (≈ 0.952 µM)	0.86	1.78			
CC1(C)CC(N=c2cc3n(-c4ccc(OC(F)(F)F)cc4)c4ccccc4nc-3cc2Nc2ccc(OC(F)(F)F)cc2)CC(C)(C)N1 [Compound B4177, N,5-bis(4-trifluoromethoxyphenyl)-3,5-dihydro-3-[(2',2',6',6'-tetramethyl-4-piperidyl)-imino)-2-phenazinamine]	0.6 (≈ 0.896 µM)	0.852 (≈ 1.27 µM)	0.056 (≈ 0.0836 µM)	10.71				MDR activity against the cell line H69/LX4 [1]: very good activity
CO[C@@]12[C@H](COC(N)=O)C3=C(C(=O)C(C)=C(N)C3=O)N1C[C@@H]1N[C@@H]12 [Mitomycin C, reference compound]								IC50 ([1]; 168 h, read-out: IC50 of chemotherapeutic agent, MDR inhibitor None): 0.1 µg/mL (≈ 0.299 µM)
